Reference: PubChem BioAssay (NCI)
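Following 48 hours of exposure in 96-well plates, responses at five concentrations were used to interpolate endpoints linearly. GI50 is the concentration that inhibits growth by half. TGI denotes the concentration required for complete inhibition of growth.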 Where a SMILES comes first, the peptide text is derived from it. The star is where a group is joined. ONb = O=[N+]([O-])c1ccc(CO*)cc1; Boc = CC(C)(C)OC(=O)*

Tests used:
Assay in all cases: NCI anticancer screen, dose series, 48 h
DU-145 prostate = test system: DU-145 prostate
HCT-116 colon = test system: HCT-116 colon
MDA-N = test system: MDA-N
OVCAR-3 ovarian = test system: OVCAR-3 ovarian
OVCAR-8 ovarian = test system: OVCAR-8 ovarian
SK-MEL-5 melanoma = test system: SK-MEL-5 melanoma
SK-OV-3 ovarian = test system: SK-OV-3 ovarian
U251 CNS = test system: U251 CNS
UACC-257 melanoma = test system: UACC-257 melanoma
MALME-3M melanoma = test system: MALME-3M melanoma

Row | Compound | TGI (DU-145 prostate) [µM] | TGI (HCT-116 colon) [µM] | TGI (MDA-N) [µM] | TGI (OVCAR-3 ovarian) [µM] | TGI (OVCAR-8 ovarian) [µM] | TGI (SK-MEL-5 melanoma) [µM] | TGI (SK-OV-3 ovarian) [µM] | TGI (U251 CNS) [µM] | TGI (UACC-257 melanoma) [µM] | TGI (MALME-3M melanoma) [µM] | GI50 (DU-145 prostate) [µM] | GI50 (HCT-116 colon) [µM] | GI50 (OVCAR-3 ovarian) [µM] | GI50 (OVCAR-8 ovarian) [µM] | GI50 (SK-MEL-5 melanoma) [µM] | GI50 (SK-OV-3 ovarian) [µM] | GI50 (U251 CNS) [µM] | GI50 (UACC-257 melanoma) [µM] | GI50 (MALME-3M melanoma) [µM]
1 | CN1C(=O)[C@@H]2[C@@H]3c4ccccc4N(S(=O)(=O)C(F)(F)F)[C@@H]3c3[nH]c4ccccc4c3[C@@H]2C1=O | > 100 | > 100 | > 100 | > 100 | > 100 | > 100 | > 100 | > 100 | > 100 | – | – | – | – | – | – | – | – | – | –
2 | O=S(=O)(O)ON=C1c2ccccc2-c2ccccc21 | > 100 | > 100 | – | > 100 | > 100 | > 100 | > 100 | > 100 | > 100 | – | – | – | – | – | – | – | – | – | –
3 | Cc1c2cnccc2c(C)c2c1c1ccccc1n2CCCCCCNCc1ccccc1 | – | 1.92 | – | 4.01 | – | 4.29 | 7.24 | 3.79 | 3.61 | 4.61 | – | – | – | – | – | – | – | – | –
4 | CO/N=C(\C)COc1ccc2c(=O)c(-c3ccccc3)coc2c1 | 52.7 | 30 | – | 74.2 | 46.8 | > 100 | 80 | > 100 | 97.3 | – | 23.1 | 14.8 | 30.2 | 21.4 | > 100 | 21.9 | 32.2 | 25.6 | –
5 | CCCCCCCCCCCCCC[S+](C)C | > 10 | > 10 | 4.15 | 4.03 | 3.58 | 2.97 | > 10 | 2.28 | 6.99 | – | – | – | – | – | – | – | – | – | –
6 | CCOC(=O)C(C(=S)Nc1ccccc1)c1nn2c(=O)cc(C)nc2s1 (configuration not stated) | > 100 | 48.3 | – | 63.2 | 51 | 41.1 | 65.7 | 83 | 52.2 | 53.5 | – | – | – | – | – | – | – | – | –
7 | O=C(CCCCCCC(=O)Nc1cccnc1)NO | > 31.5 | > 100 | > 25.6 | 18.7 | > 57.5 | – | > 71.8 | > 54.8 | 87.7 | > 100 | – | – | – | – | – | – | – | – | –
8 | CC(C)CC(NC(=O)OC(C)(C)C)C(=O)NC(CCC(=O)OCc1ccc([N+](=O)[O-])cc1)C(=O)OCc1ccc([N+](=O)[O-])cc1 (stereo not drawn) (Boc-Leu-Glu(ONb)-ONb; configuration not given here) | 44.9 | > 100 | > 100 | 77.4 | > 100 | – | – | > 100 | > 100 | > 100 | – | – | – | – | – | – | – | – | –
9 | O=C1[C@@H]2[C@@H](c3ccccc3)[C@]2(Cl)C(=O)[C@H]2[C@H](c3ccccc3)[C@@]12Cl | > 100 | > 100 | – | > 100 | > 100 | > 100 | > 100 | > 100 | > 100 | > 100 | – | – | – | – | – | – | – | – | –
10 | CC(=C(C(N)=O)C(N)=O)C1C=C(c2cccs2)CC(c2ccc(Cl)cc2)=C1O (configuration not stated) | > 100 | > 100 | > 100 | > 100 | > 100 | > 100 | > 100 | > 100 | > 100 | – | – | – | – | – | – | – | – | – | –
11 | O=c1oc2cc(O)ccc2c(O)c1C(c1cccnc1)c1c(O)c2ccc(O)cc2oc1=O | > 100 | > 100 | > 100 | > 100 | > 100 | > 100 | > 100 | > 100 | > 100 | – | – | – | – | – | – | – | – | – | –
12 | N#CCCC1(CCC#N)CCCCCCCCC(CCC#N)(CCC#N)C(=O)C1=O | > 100 | > 100 | > 100 | > 100 | > 100 | – | > 100 | > 100 | > 100 | > 100 | – | – | – | – | – | – | – | – | –
13 | COc1ccc(OC)c(CC2CCc3nc(N)nc(N)c3C2)c1 (configuration not stated) | – | > 100 | 27.7 | > 100 | > 100 | 28.9 | > 100 | > 100 | 34.4 | 24.2 | – | – | – | – | – | – | – | – | –
14 | O=C1/C(=C/c2ccc(Cl)cc2)N=C(c2ccccc2)N1CCc1cccs1 | > 100 | > 100 | – | > 100 | > 100 | 33.2 | > 100 | > 100 | > 100 | > 100 | 42.7 | 6.65 | 16.7 | 43.8 | 15.6 | 55.9 | 22.4 | 36 | 35.1
15 | CC(=O)O[C@@H]1C2=C(C)C=C(O2)[C@H]2O[C@]2(C)C[C@H]2C=C(C(=O)O2)[C@H](OC(C)=O)CC1[C@@]1(C)CO1 (some centres not stated) | > 100 | 28.4 | > 100 | – | > 100 | > 100 | > 100 | 40.1 | > 100 | 58.4 | – | – | – | – | – | – | – | – | –
